Reference: patent US20100008868A1, “SUSTAINED REMISSION OF ATOPIC DERMATITIS” (priority 2007, published 2010)

What was measured:
[1] = 15, 45, and 120 mg/kg/day orally, 39 weeks; cited from earlier work
[2] = test system: atopic dermatitis; conditions: cited from earlier work
[3] = test system: atopic dermatitis; conditions: 0.2%, 0.6% and 1.0% creams; 260 patients; cited from earlier work
[4] = test system: atopic dermatitis; assay: Topical treatment of atopic dermatitis lesions in individual subjects (case reports, Examples 11-15); type: in vivo, human; conditions: topical application to atopic dermatitis lesion
Description: The product was applied on an irregular basis with the longest exposure time at night.
A subject with an atopic dermatitis lesion on the palm of the right hand is presently being treated with the invention containing betamethasone and clemastine hydrogen fumarate.

[5] = 192 adults with moderate to severe AD

Compound	finding associated with oral dosing [1]	days on which corticosteroid medication for flares was used ([2]; 24-week treatment period)	median time to first flare [2, 5] [days]	patients who did not experience a flare [2, 5] [%]	efficacy vs vehicle [3]	outcome of the lesion [4]
CC[C@@H]1/C=C(\C)C[C@H](C)C[C@H](OC)[C@H]2O[C@@](O)(C(=O)C(=O)N3CCCC[C@H]3C(=O)O[C@H](/C(C)=C/[C@@H]3CC[C@H](Cl)[C@H](OC)C3)[C@H](C)[C@@H](O)CC1=O)[C@H](C)C[C@@H]2OC [pimecrolimus]	immunosuppression-related lymphoproliferative disorders	14.2 % of the days	144	44.8	significantly more effective than vehicle	–
betamethasone propionate	–	–	–	–	–	no improvement
